Experimental data published in publication PMC4537050, “A long pentraxin-3-derived pentapeptide for the therapy of FGF8b-driven steroid hormone-regulated cancers” (Oncotarget, 2015).

Legend:
[1] = target: T1, FGF4 (Homo sapiens, UniProt P08620); assay: SPR analysis of FGF/ARPCA interaction, FGF4; type: binding; details: immobilized FGF4
T1 sequence (P08620 31-206): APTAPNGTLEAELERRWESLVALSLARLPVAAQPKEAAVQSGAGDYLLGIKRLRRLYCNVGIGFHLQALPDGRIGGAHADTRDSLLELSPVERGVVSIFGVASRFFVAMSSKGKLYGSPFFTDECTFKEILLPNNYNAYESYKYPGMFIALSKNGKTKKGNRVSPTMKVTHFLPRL

[2] = target: T2, FGF3 (Homo sapiens, UniProt P11487); assay: SPR analysis of FGF/ARPCA interaction, FGF3; type: binding; details: immobilized FGF3
T2 sequence (P11487 18-239): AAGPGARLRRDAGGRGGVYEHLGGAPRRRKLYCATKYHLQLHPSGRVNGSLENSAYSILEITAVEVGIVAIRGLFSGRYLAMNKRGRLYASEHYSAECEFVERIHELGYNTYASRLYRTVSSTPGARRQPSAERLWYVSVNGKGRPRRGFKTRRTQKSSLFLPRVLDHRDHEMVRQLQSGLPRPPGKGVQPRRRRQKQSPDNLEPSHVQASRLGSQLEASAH

[3] = target: FGF9 (Homo sapiens, UniProt P31371); assay: SPR analysis of FGF/ARPCA interaction, FGF9; type: binding; details: immobilized FGF9
[4] = system: FGFR1 phosphorylation in HUVECs; assay: FGFR1 phosphorylation in FGF8b-stimulated HUVECs (immunofluorescence); type: cell-based, human; details: 30 ng/ml FGF8b, 60 μM peptide
Procedure: HUVECs were seeded in Ibidi® μ-Slide 8 wells (Ibidi, Martinsried, Germany, EU) at a density of 30000 cells/cm^2, starved in 2.5% FBS for 24 h and stimulated for 20 minutes with 30 ng/ml of FGF8b in the absence or presence of ARPCA or ARPVA. Following stimulation, cells were washed twice in PBS, fixed in cold acetone for 5 minutes and permeabilized with 0.2% Triton-X100 in PBS for 2 minutes at room temperature (RT). After washing in PBS, cells were blocked for 10 minutes at RT in 1% BSA and then incubated with rabbit anti-pFGFR1 or rabbit anti-FGFR1 antibodies (Santa Cruz Biotechnology) for 1 h at RT. After washing in PBS, cells were incubated with AlexaFluor 594-conjugated anti-rabbit antibody (Invitrogen) and DAPI for 30 minutes at RT. Finally, cells were examined under a Zeiss Fluorescence Axiovert 200M microscope (Carl Zeiss).

[5] = system: HUVEC spheroids; assay: Endothelial cell sprouting assay (HUVEC spheroids in fibrin gel); type: cell-based, human; details: 60 μM peptide, 24 h
Procedure: HUVEC spheroid aggregates were prepared in 20% methylcellulose medium, embedded in fibrin gel, and stimulated with FGF8b or VEGF-A (both at 30 ng/ml) plus 5% FBS in the absence or presence of 60 μM ARPCA or ARPVA. Formation of radially growing cell sprouts was observed during the next 24 h, photographed at 200x magnification using an Axiovert 200M microscope (Carl Zeiss, Milan, Italy, EU) and counted.

[6] = system: chick embryo chorioallantoic membrane (CAM); assay: Chick embryo CAM assay with growth factor alginate implants; type: in vivo; details: vessels counted at day 14
Procedure: Alginate plugs containing vehicle, FGF8b (4.5 pmoles/embryo), VEGF-A (4.5 pmoles/embryo) or S115 cells (2.5×10^4/embryo) in the absence or presence of ARPCA (80 or 140 pmoles/embryo) or ARPVA (140 pmoles/embryo) were placed on the CAM of fertilized white leghorn chicken eggs at day 11 of incubation. At day 14, newly formed blood microvessels converging toward the implant were counted by two observers in a double-blind fashion at 5x magnification under a stereomicroscope (STEMI-SR, x2/0.12; Zeiss) as described.

[7] = system: FGFR1 phosphorylation and ERK1/2 activation in S115 cells; assay: Western blot of FGF8b-treated S115 cells; type: cell-based, mouse; details: 30 ng/ml FGF8b, 100 μM peptide, 20 minutes
Procedure: S115 cells were treated with FGF8b (30ng/ml) in the presence or absence of ARPCA (100 μM) or ARPVA (100 μM). After 20 minutes of incubation cell samples were washed in cold PBS and homogenized in RIPA buffer containing 1% Triton-X100, 0.2% BriJ, 1 mM sodium orthovanadate and protease inhibitors cocktail. Protein concentrations were determined using the Bradford protein assay (Bio-Rad Laboratories, Milano, Italy). Blotting analysis was performed using anti-FGFR1, anti-phospho FGFR1 and anti-phosphoERK1/2 antibodies (Santa Cruz Biotechnology, Santa Cruz, CA, USA). Equal loading of the lanes was confirmed by immunoblotting with anti–αTubulin (Sigma-Aldrich) antibody.

[8] = system: S115 tumors; assay: In vivo tumor therapy study, S115 tumors; parameters: species or system athymic Nu/Nu male mice; details: s.c. S115 cells, i.p. 100 mg/kg every other day starting at day 8, followed for the next 32 days
Procedure: Eight week old C57BL/6 male mice were injected s.c. with 8×10^6 TRAMP-C2 cells, and eight week old athymic Nu/Nu male mice were injected s.c. with 5×10^6 S115 cells. All injections were performed in 200 μl total volume of PBS into the dorsolateral flank. When tumors were palpable treatment was performed every other day by i.p. injection of ARPCA, ARPVA (both at 100 mg/kg) or vehicle (PBS) in 100 μl final volume. Tumors were measured in two dimensions and tumor volume was calculated according to the formula V=(D × d^2)/2, where D and d are the major and minor perpendicular tumor diameters, respectively. At the end of the experimental procedure tumors were harvested, weighted and photographed.

[9] = In vivo ARPCA toxicity studies
Procedure: Eight week-old C57BL/6 mice were treated i.p. with 100 mg/kg of ARPCA every other day for two weeks. During this period, animals were weighted for body weight variation analysis. At the end of treatment, whole blood and serum were harvested and analysed for blood components, biochemical serum parameters and circulating levels of FGF23. The serum levels of FGF23 were assessed by ELISA (Uscn Life Science Inc., Wuhan, PRC, Asia) according to manufacturer's instructions. Untreated mice were used as reference/control.

Question: With Ac-ARPCA-NH2 [ARPCA, Ac-ARPCA-NH2] as the substance, how does the “Kd, FGF4” value [1] read?
Answer: The value was “n.b”.

Question: What about the “Kd, FGF3” value [2] of the same substance?
Answer: Its value is “n.b”.

Question: What about the “Kd, FGF9” value [3] of the same substance?
Answer: The value was “n.b”.

Question: What about the “FGFR1 phosphorylation triggered by FGF8b in HUVECs” value [4] of the same substance?
Answer: Its value is “efficiently impairs FGFR1 phosphorylation”.

Question: What about the “sprouting activity exerted by FGF8b on HUVEC spheroids” value ([5]; 30 ng/ml FGF8b) of the same substance?
Answer: The value was “specifically prevents the pro-angiogenic/sprouting activity”.

Question: And the “effect on the angiogenic potential of VEGF-A on HUVEC spheroids” value ([5]; 30 ng/ml VEGF-A)?
Answer: Its value is “no effect”.

Question: And the “angiogenic response elicited by FGF8b in the CAM” value ([6]; 4.5 pmoles FGF8b/plug, ARPCA 80 or 140 pmoles, ARPVA 140 pmoles)?
Answer: The value was “significantly reduced”.

Question: And the “angiogenic response elicited by VEGF-A in the CAM” value ([6]; 4.5 pmoles VEGF-A/plug)?
Answer: The value was “No inhibitory effect”.

Question: And the “FGFR1 phosphorylation in S115 cells treated with FGF8b” value [7]?
Answer: The value was “inhibits FGFR1 phosphorylation”.

Question: What about the “MAPK ERK1/2 activation in S115 cells treated with FGF8b” value [7] of the same substance?
Answer: Its value is “inhibits”.

Question: What about the “S115 tumor growth, long-term experiment” value [8] of the same substance?
Answer: Its value is “suppresses S115 tumor growth”.

Question: And the body weight ([9]; i.p. 100 mg/kg every other day for two weeks)?
Answer: Its body weight is “did not affect”.

Question: And the “hematologic parameters, blood serum components and FGF23 serum levels (in words)” value ([9]; long-term administration, i.p. 100 mg/kg every other day)?
Answer: Its value is “did not affect”.
